Read-outs that look alike come from different tables or passages of the source.

One data set relates to Striga seeds. Description: Stability of formulated SL analogs in aqueous solution under storage (Striga germination readout). It is filed as physicochemical, Striga hermonthica. The note with it: 1.0 μM. The procedure:
The stability of formulated SL analogs was further tested in sand culture. About 1.5 ml of silver sand was added in each of 6 wells of 24-well plates. Then, 800 μl of formulated SL analogs (1.0 μM) was added in each of the six wells. The plates were sealed firmly with para-film, wrapped in aluminum foil, and placed at 30°C from day 1 to day 7. After 7 days, glass fiber discs containing preconditioned Striga seeds were placed on the top of each of the six wells and incubated in the dark at 30°C for 24 h. The germinated and non-germinated seeds were counted from each disc. In addition, the viability of formulated SL analogs was also tested in aqueous solution for 7 weeks at 30°C. About 800-μl aqueous solution of formulated SL analogs (1.0 μM) was added in a black Eppendorf tube weekly up to 6 weeks and incubated at 30°C. On the seventh week, about 50 μl of each analog was applied on a glass fiber disc containing preconditioned Striga seed and put again in the dark in sealed petri plates at 30°C for 24 h. Germinated and non-germinated seeds were counted from each disc.

The next data set has as its system Striga. In words: Striga emergence after formulated MP13 in naturally infested farmer's field (pearl millet host). The class given is in vivo. The procedure: A naturally Striga-infested farmer’s field was selected near Kouaré research station ([…], 0°30′W) (Fada N’Gourma, Burkina Faso) to test suicidal activity of formulated MP13, taking formulated water treatment as control treatment. After onset of few rains, the field was thoroughly prepared by subsequent ploughing and planking. The experiment was laid out in a randomized complete block design with four plots or replications. Each plot consisted of two 3-m-long mounds and spaced with one mound between rows. Formulated MP13 and normal water (control) were applied twice in each plot (25 ml m^−2) following rains (~10 mm) to get a final concentration of 0.5 μM. Local pearl millet crop was sown at least 1 week after the second application. Data on the number of emerged Striga plants at three counting dates were collected in both fields on a plot basis. The three Striga counts were then used to calculate the average number of emerged Striga plants throughout the season.

The next data set concerns S. hermonthica seeds. Description: Parasitic seed germination bioassay, Striga. The note with it: for Striga germination rate: 1.0 μM, formulated and non-formulated, 24 h at 30°C; for EC50: Striga hermonthica. It is filed as in vivo, Striga hermonthica.
For a further data set, the system named is Arabidopsis seedlings. Description: Arabidopsis lateral root density assay. It is filed as in vivo. The note with it: compared to control seedlings; for inhibition of lateral root density: 1.0 μM. Here is the method: The sterilized Arabidopsis seeds were grown in petri plates that were first kept at 4°C in darkness for 3 days. For hypocotyl study, the petri plates were exposed to continuous white light for 24 h, then transferred to continuous monochromatic red light (20 μmol m^−2 s^−1, 22°C) conditions for another 4 days. For lateral root density, the plates were vertically grown at 22°C in Percival incubator under long day conditions (16 h at 22°C/8 h at 16°C day/night, 60% relative humidity, 60–70 μmol m^−2 s^−1 white light) for 8 days. After scanning, the hypocotyl length and number of lateral roots were recorded using publicly available ImageJ software.^1

Data set [1] can be described thus: Stability of SL analogs in aqueous solution by HPLC. It is filed as physicochemical. The note with it: pH 6.8, 3-day intervals up to 3 weeks. Here is the method: The SL analogs GR24, AR8, MP13, and MP26 were first tested for their stability by high-performance liquid chromatography (HPLC) in an aqueous solution (50 μgml^−1, pH, 6.8) by adopting the previously described procedure with minor modifications ([Jamil et al., 2018]). Each compound (1 mg) was dissolved in 1-ml acetone, and then […] out of the analog solution were diluted with 150 μl ethanol and 750 μl water. Thereafter, 25 μl Indanol (1 mg ml^−1, internal standard) was spiked in 975-μl test solution. The time course of degradation was monitored by ultra-performance liquid chromatography (UPLC) analysis using a Zorbax Eclipse XDB-C18 column (3.5 μm, 4.6 mm× 150 mm), eluted first by 5% acetonitrile in water for 0.5 min, then by a gradient flow from 5 to 100% acetonitrile within 17.5 min, and by 100% acetonitrile for 5 min. The column was operated at 40°C with a flow rate of 0.35 ml min^−1, and the temperature of auto-sampler was set at 21°C. Compounds eluted from the column were detected with a photodiode array detector, and the relative quantity of non-degraded amount was calculated by integrating corresponding peak areas and comparison with the internal standard Indanol. Stability was monitored at 3-day intervals up to 3 weeks.

Setting [2] is: read-out: EC50 Striga seed germination, formulated.
Setting [3] is: read-out: EC50 Striga seed germination, non-formulated.

Procedure for S. hermonthica seeds: Germination activity of SL analogs on S. hermonthica and P. aegyptiaca seeds was tested by following the procedure described before ([Jamil et al., 2012]). The preconditioned Striga and Phelipanche seeds were treated with 50 μl of each SL analog solution at a concentration range (10^−5–10^−12 M). GR24 and sterile MilliQ water were included as positive and negative controls, respectively. The treated seeds were allowed to germinate in the dark for 24 h at 30°C (for Striga) and for 1 week at 25°C (for Phelipanche). The germinated and non-germinated seeds were counted under a binocular microscope, and germination rate (in %) was calculated.
Collected data were analyzed statistically using statistical software package R (version 3.2.2).

Regarding `CC1=CC(O/C=C(\C)C=O)OC1=O` (centres unmarked) [MP13, (E)-2-methyl-3-[(4-methyl-5-oxo-2,5-dihydrofuran-2-yl)oxy]acrylaldehyde], the “Striga germination rate after 1 week's storage” value in the data set with Striga seeds (30°C) was 9%. For the same molecule, the “Striga germination activity after 2 weeks of storage” value with Striga seeds (30°C, 2 weeks) is listed as “not detectable”. Besides, in the data set on Striga seeds, the “Striga germination rate before storage” value was 53%. Besides, the “Striga emergence (No. per plot), change vs control” value in the data set with Striga (formulated MP13, 0.5 μM, printed in Figure 8E) is given as -41%. Besides, the “Striga plants counted at the end of the season” value with Striga (formulated MP13 applied twice, final conc. 0.5 μM, pearl millet, mock field 154) was 91 plants m^−2. The Striga germination rate in the data set on S. hermonthica seeds was 37–70%. The concentration for a half-maximal effect (EC50) in the data set on S. hermonthica seeds (setting [2]) was 0.11 µM; in the data set on S. hermonthica seeds (setting [3]), 0.64 µM. The “inhibition of lateral root density” value in the data set with Arabidopsis seedlings is recorded as “did not lead to a significant effect”. Moreover, the “stability by HPLC (relative amount of non-degraded analog)” value in data set [1] is on record as “lowest stability throughout the whole 3 weeks of analysis”.

As to `CC1=C(C)C(O/C=C(\C)C=O)OC1=O` (centres unmarked) [AR8, reference compound], the “Striga germination rate after 1 week's storage” value in the data set with Striga seeds (30°C) is listed as “total loss of activity”. For the same molecule, the Striga germination rate with S. hermonthica seeds is 9%. Also, the EC50 in the data set with S. hermonthica seeds (setting [2]) worked out at 0.99 µM; in the data set with S. hermonthica seeds (setting [3]) it was 690 µM. The “inhibition of lateral root density” value in the data set on Arabidopsis seedlings was “did not lead to a significant effect”. The “stability by HPLC (relative amount of non-degraded analog)” value in data set [1] is “slightly less stability than GR24 and MP26 but more than MP13”.

Regarding `COC(=O)/C=C/C(C)=C/OC1C=C(C)C(=O)O1` (centres unmarked) [MP26, (2E,4E)-methyl 4-methyl-5-(4-methyl-5-oxo-2,5-dihydrofuran-2-yloxy)penta-2,4-dienoate], the “Striga germination rate after 6 weeks of storage” value with Striga seeds (30°C, 6 weeks) is 4%. For the same molecule, the “Striga germination rate before storage” value with Striga seeds worked out at 69%. Besides, the Striga germination rate in the data set on S. hermonthica seeds was 37–70%. For the same molecule, the half-maximal effective concentration (EC50) in the data set with S. hermonthica seeds (setting [2]) turned out to be 0.098 µM; with S. hermonthica seeds (setting [3]), 0.35 µM. Moreover, the inhibition at 1 µM in the data set with Arabidopsis seedlings (Arabidopsis thaliana) is 43%. Moreover, the “stability by HPLC (relative amount of non-degraded analog)” value in data set [1] is listed as “equal stability as GR24 up to 6 days of incubation”.

One may read the EC50 as the concentration that produces a half-maximal response. In general, inhibition refers to the share of the control response that was lost under treatment.

The values are drawn from publication PMC6455008, “Methylation at the C-3′ in D-Ring of Strigolactone Analogs Reduces Biological Activity in Root Parasitic Plants and Rice” (Frontiers in Plant Science, 2019).
